Results taken from patent publication US9808014B2, “Active-powder biocidal composition comprising at least one copper salt and at least one zinc salt and the method for the production thereof” (Textil Copper Andino S.A. [CL/CL], priority 2011, dated 2017).

What was measured:
[1] = Solubility constant in aqueous solution (Kps)
Subtilis bacteria = settings: Cu^+ ions; cited from earlier work
Staphylococcus aureus = settings: Cu^+ ions; cited from earlier work

Row | Molecule | Group (classification according to Kps value) [1] | MIC value for copper (Subtilis bacteria) | MIC value for copper (Staphylococcus aureus)
1 | [OH][Cu][OH] [Copper (II)Hydroxide] | C (Group C: salts with a Kps within a range that goes from a value greater than or equal to 1*10^−20 until a value equal to or less than 9*10^−16.) |  | 
2 | [Cu] [copper] |  | 0.04 µM | 0.35 µM
3 | Copper (I)Hydroxide | B (Group B: salts with a Kps within a range that goes from a value greater than 9*10^−16 until a value equal to or less than 9*10^−11.) |  | 
4 | Copper(I) Oxide | B (Group B: salts with a Kps within a range that goes from a value greater than 9*10^−16 until a value equal to or less than 9*10^−11.) |  | 
5 | Copper(I)Phthalocyanine | B (Group B: salts with a Kps within a range that goes from a value greater than 9*10^−16 until a value equal to or less than 9*10^−11.) |  | 
